We go through eight molecules from ChEMBL document CHEMBL6074683, “Design, synthesis and investigation of biological activity and mechanism of fluoroaryl-substituted derivatives at the FL118 position 7” (Eur J Med Chem, 2025).

One may read the IC50 as the concentration that inhibits the measured activity by half. A lower IC50 goes with higher potency. The Papp A→B is the apparent permeability from the apical to the basolateral side of a cell layer. The term efflux ratio denotes a quotient of directional permeabilities that is used to spot active efflux.

The subject of data set [1] is HCT-116. Briefly: Cytotoxicity against human HCT-116 cells incubated for 72 hrs by MTT assay. Type of data set: functional, cell-based. The conditions noted are these: HCT-116, 72 h. Background: Tetrazolium assays rely on reduction of a dye to a coloured formazan, in cell work by metabolically active cells.
Data set [2] deals with HepG2. In words: Cytotoxicity against human HepG2 cells incubated for 72 hrs by MTT assay. It counts as functional, cell-based. The conditions noted are these: HepG2, 72 h.
Data set [3] has as its system A549. In words: Cytotoxicity against human A549 cells incubated for 72 hrs by MTT assay. Type of data set: functional, cell-based. The conditions noted are these: A549, 72 h.
For data set [4], the system named is HeLa. Briefly: Cytotoxicity against human HeLa cells incubated for 72 hrs by MTT assay. Type of data set: functional, cell-based.
In data set [5] the test system is PDX27454. Briefly: Antitumor activity against human PDX27454 cells xenografted in SCID mouse at 2 to 15 mg/kg, ip administered weekly for 4 weeks. It counts as functional, organism-based. The conditions noted are these: dose 2-15 mg/kg. For orientation: Xenograft models place foreign cells or tissue in a host animal.
Data set [6] in a line: Toxicity in SCID mouse assessed as change in body weight at 2 to 15 mg/kg, ip administered weekly for 4 weeks. It counts as organism-based. The conditions noted are these: in vivo, 672 h, dose 2-15 mg/kg.
Data set [7] has as its system HCT-116. Briefly: Induction of apoptosis in human HCT-116 cells assessed as early apoptotic cells at 2.5 nM incubated for 48 hrs by PI/Annexin V-FITC staining based flow cytometry assay (reference value: 0.27%). Type of data set: functional. (In flow cytometry, cells or beads pass a laser one at a time.)
The test system of data set [8] is HCT-116. In words: Induction of apoptosis in human HCT-116 cells assessed as early apoptotic cells at 50 nM incubated for 48 hrs by PI/Annexin V-FITC staining based flow cytometry assay (reference value: 0.27%). Type of data set: functional.
Data set [9] has as its system HCT-116. In words: Downregulation of Bcl-2 protein level in human HCT-116 cells at 50 to 100 nM incubated for 72 hrs by Western blotting assay. It counts as functional, cell-based. The conditions noted are these: dose 50-100 nM.
Data set [10] has as its system PDX27454. In words: Antitumor activity against human PDX27454 cells xenografted in SCID mouse at 15 mg/kg, ip administered weekly for 4 weeks. Type of data set: functional, organism-based.
Data set [11] has as its system HCT-116. Briefly: Induction of ROS generation in human HCT-116 cells incubated for 12 hrs by DCFH-DA staining based assay. It counts as functional, cell-based.
The test system of data set [12] is HCT-116. Briefly: Inhibition of colony formation in human HCT-116 cells incubated for 12 hrs by crystal violet staining based assay. Type of data set: functional, cell-based. The conditions noted are these: dose 5-25 nM.
Data set [13] relates to PDX27454. In words: Antitumor activity against human PDX27454 cells xenografted in ip dosed SCID mouse administered weekly for 4 weeks and measured after 35 days. It counts as functional, organism-based. The conditions noted are these: dose 2-15 mg/kg.
Data set [14] deals with T1, DNA topoisomerase 1 (Homo sapiens) (UniProt P11387).
T1 sequence (whole entry): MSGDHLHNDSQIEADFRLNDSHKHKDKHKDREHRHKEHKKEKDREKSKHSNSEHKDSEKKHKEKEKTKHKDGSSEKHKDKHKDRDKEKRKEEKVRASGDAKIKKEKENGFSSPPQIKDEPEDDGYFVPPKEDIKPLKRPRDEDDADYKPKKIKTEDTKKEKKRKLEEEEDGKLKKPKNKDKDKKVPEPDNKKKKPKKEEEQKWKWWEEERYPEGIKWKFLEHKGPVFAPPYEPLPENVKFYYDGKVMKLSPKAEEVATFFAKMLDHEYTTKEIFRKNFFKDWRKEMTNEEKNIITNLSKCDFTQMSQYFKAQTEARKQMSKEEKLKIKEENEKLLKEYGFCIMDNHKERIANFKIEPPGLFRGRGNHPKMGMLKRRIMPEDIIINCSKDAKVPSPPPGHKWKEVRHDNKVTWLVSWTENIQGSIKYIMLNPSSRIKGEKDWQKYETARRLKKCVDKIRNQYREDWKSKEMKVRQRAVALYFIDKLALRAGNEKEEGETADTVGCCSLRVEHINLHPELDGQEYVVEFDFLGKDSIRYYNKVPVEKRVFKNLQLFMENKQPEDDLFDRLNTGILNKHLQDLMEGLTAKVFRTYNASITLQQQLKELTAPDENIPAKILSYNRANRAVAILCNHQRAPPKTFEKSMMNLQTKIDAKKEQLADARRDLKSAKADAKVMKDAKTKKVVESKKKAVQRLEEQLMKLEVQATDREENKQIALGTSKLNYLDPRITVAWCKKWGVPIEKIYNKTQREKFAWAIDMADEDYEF
In words: Inhibition of topoisomerase 1 (unknown origin) assessed as reduction in nicking of supercoiled DNA at 0.05 to 0.5 uM using pBR322 DNA as substrate by ethidium bromide staining based agarose gel electrophoresis method. The conditions noted are these: dose 0.05-0.5 µM.

For data set [15], the target named is T1, DNA topoisomerase 1 (Homo sapiens). Briefly: Inhibition of topoisomerase 1 (unknown origin) using pBR322 DNA as substrate by ethidium bromide staining based agarose gel electrophoresis method.
The subject of data set [16] is HCT-116. In words: Downregulation of DDX5 protein expression in human HCT-116 cells at 100 nM incubated upto 72 hrs by Western blotting assay. Type of data set: functional, cell-based.
In data set [17] the test system is HCT-116. Briefly: Induction of apoptosis in human HCT-116 cells assessed as late apoptotic cells at 2.5 nM incubated for 48 hrs by PI/Annexin V-FITC staining based flow cytometry assay (reference value: 4.02%). It counts as functional.
In data set [18] the test system is HCT-116. In words: Upregulation of Bax protein level in human HCT-116 cells incubated for 72 hrs by Western blotting assay. Type of data set: functional, cell-based. The conditions noted are these: dose 50-100 nM.
Data set [19] relates to HCT-116. Briefly: Induction of apoptosis in human HCT-116 cells assessed as late apoptotic cells at 50 nM incubated for 48 hrs by PI/Annexin V-FITC staining based flow cytometry assay (reference value: 4.02%). Type of data set: functional.
The subject of data set [20] is HCT-116. In words: Upregulation of gammaH2AX protein level in human HCT-116 cells incubated for 72 hrs by Western blotting assay. It counts as functional, cell-based. The conditions noted are these: dose 50-100 nM.
Data set [21] deals with HCT-116. Briefly: Induction of apoptosis in human HCT-116 cells assessed as late apoptotic cells at 10 nM incubated for 48 hrs by PI/Annexin V-FITC staining based flow cytometry assay (reference value: 4.02%). Type of data set: functional.
In data set [22] the target is T1, DNA topoisomerase 1 (Homo sapiens). Briefly: Inhibition of topoisomerase 1 (unknown origin) using pBR322 DNA as substrate in presence of DDX5 by ethidium bromide staining based agarose gel electrophoresis method.
Data set [23] deals with HCT-116. In words: Induction of apoptosis in human HCT-116 cells assessed as necrotic cells at 2.5 nM incubated for 48 hrs by PI/Annexin V-FITC staining based flow cytometry assay (reference value: 2.58%). Type of data set: functional.
In data set [24] the test system is HCT-116. Briefly: Downregulation of XIAP protein level in human HCT-116 cells at 50 to 100 nM incubated for 72 hrs by Western blotting assay. Type of data set: functional, cell-based. The conditions noted are these: dose 50-100 nM.
Data set [25] concerns HCT-116. Briefly: Induction of apoptosis in human HCT-116 cells assessed as viable cells at 10 nM incubated for 48 hrs by PI/Annexin V-FITC staining based flow cytometry assay (reference value: 93%). Type of data set: functional. The conditions noted are these: read-out: Activity.
Data set [26] deals with HCT-116. In words: Induction of apoptosis in human HCT-116 cells assessed as necrotic cells at 10 nM incubated for 48 hrs by PI/Annexin V-FITC staining based flow cytometry assay (reference value: 2.58%). Type of data set: functional.
In data set [27] the test system is HCT-116. Briefly: Downregulation of survivin protein level in human HCT-116 cells at 50 to 100 nM incubated for 72 hrs by Western blotting assay. It counts as functional, cell-based. The conditions noted are these: dose 50-100 nM.
Data set [28] concerns the target T1, DNA topoisomerase 1 (Homo sapiens). In words: Inhibition of topoisomerase 1 (unknown origin) assessed as reduction in nicking of supercoiled DNA at 5 to 50 uM using pBR322 DNA as substrate by ethidium bromide staining based agarose gel electrophoresis method. The conditions noted are these: dose 5-50 µM.
Data set [29] has as its system HCT-116. Briefly: Induction of apoptosis in human HCT-116 cells assessed as viable cells at 2.5 nM incubated for 48 hrs by PI/Annexin V-FITC staining based flow cytometry assay (reference value: 93%). The conditions noted are these: read-out: Activity. It counts as functional.
The subject of data set [30] is HCT-116. Briefly: Induction of apoptosis in human HCT-116 cells assessed as viable cells at 50 nM incubated for 48 hrs by PI/Annexin V-FITC staining based flow cytometry assay (reference value: 93%). Type of data set: functional. The conditions noted are these: read-out: Activity.
Data set [31] has as its system HCT-116. Briefly: Induction of ROS generation in human HCT-116 cells incubated for 72 hrs by DCFH-DA staining based assay. It counts as functional, cell-based. The conditions noted are these: dose 5-100 nM.
In data set [32] the test system is HCT-116. In words: Induction of apoptosis in human HCT-116 cells assessed as necrotic cells at 50 nM incubated for 48 hrs by PI/Annexin V-FITC staining based flow cytometry assay (reference value: 2.58%). It counts as functional.
Data set [33] concerns HCT-116. In words: Induction of apoptosis in human HCT-116 cells assessed as early apoptotic cells at 10 nM incubated for 48 hrs by PI/Annexin V-FITC staining based flow cytometry assay (reference value: 0.27%). Type of data set: functional.
Data set [34] can be described thus: Apparent permeability across apical to basolateral side in human Caco-2 cells measured upto 120 mins by LC-MS/MS method. Type of data set: ADME, cell-based.
The nature of data set [35]: Efflux ratio of apparent permeability across basolateral to apical over apical to basolateral side in human Caco-2 cells. It counts as ADME, cell-based.

Active and inactive are the calls of the source. No cut-off for these calls is given here.

Regarding `CC[C@@]1(O)C(=O)OCc2c1cc1n(c2=O)Cc2c-1nc1cc3c(cc1c2-c1ccc(F)c(C)c1)OCO3`, the half-maximal inhibitory concentration (IC50) in data set [1] is 25.5 nM; in data set [2], 36.7 nM; in [3] it was 29.4 nM; in data set [4], 36.6 nM.

For the molecule `CC[C@@]1(O)C(=O)OCc2c1cc1n(c2=O)Cc2c-1nc1cc3c(cc1c2-c1cccc(C(F)(F)F)c1)OCO3`, the IC50 in [1] was 73.6 nM; in data set [2] it was 35 nM; in data set [3] it was 82.9 nM; in data set [4], 20.2 nM.

Regarding `CCOc1ccc(-c2c3c(nc4cc5c(cc24)OCO5)-c2cc4c(c(=O)n2C3)COC(=O)[C@]4(O)CC)cc1F`, the IC50 in data set [1] is 399 nM; in data set [2], 206 nM; in data set [3] it was 352 nM; in data set [4] it was 42.2 nM.

As for `CC[C@@]1(O)C(=O)OCc2c1cc1n(c2=O)Cc2c-1nc1cc3c(cc1c2-c1cc(F)cc(F)c1)OCO3`, the IC50 in data set [1] turned out to be 48 nM; in data set [2], 41.4 nM; in [3], 49.5 nM; in [4], 35.6 nM. In addition, the result in data set [5] was Active. Also, the Activity entry in data set [6] was “Non-toxic”.

On to `CC[C@@]1(O)C(=O)OCc2c1cc1n(c2=O)Cc2c-1nc1cc3c(cc1c2-c1cccc(OC(F)(F)F)c1)OCO3`, for which the IC50 in data set [1] came to 14.6 nM; in data set [2] it was 16.8 nM; in data set [3], 26.4 nM; in data set [4], 12.8 nM.

On to `CC[C@@]1(O)C(=O)OCc2c1cc1n(c2=O)Cc2c-1nc1cc3c(cc1c2-c1ccc(C)c(F)c1)OCO3`, for which the 50% inhibitory concentration (IC50) in data set [1] turned out to be 50.3 nM; in data set [2] it was 36.9 nM; in data set [3], 48.2 nM; in [4] it was 22.1 nM.

For `CC[C@@]1(O)C(=O)OCc2c1cc1n(c2=O)Cc2c-1nc1cc3c(cc1c2-c1ccc(F)c(OC)c1)OCO3`, the Activity in [7] is 0.64%; in [8] it was 0.78%; in [13] it was “Dose-dependent-effect”; in data set [17] it was 10.9%; in data set [19], 25.9%; in data set [21], 16.3%. Also, the Activity is 4.13% in data set [23]; 4.17% in data set [26]; “Dose-dependent-effect” in [31]; “Non-toxic” in [6]; 5.94% in data set [32]; 0.5% in [33]. In addition, the outcome in data set [9], in data set [10], in data set [18], in [20], in [5] and in data set [22] was Active. In addition, the result in [24], in data set [27] and in data set [28] was Active. The result in data set [11], in data set [14] and in data set [16] was inactive. Besides, the inhibition result in data set [12] was “Dose-dependent-effect”. In addition, in data set [15], the inhibition result was “Active”. Also, the viability at 0.01 µM in [25] came out at 79%. The viability at 0.0025 µM in data set [29] was 84.4%. Besides, the viability at 0.05 µM in data set [30] was 67.5%.

For the molecule `CC[C@@]1(O)C(=O)OCc2c1cc1n(c2=O)Cc2cc3cc4c(cc3nc2-1)OCO4`, the half-inhibitory concentration (IC50) in [1] turned out to be 66.5 nM; in [2] it was 68.5 nM; in data set [3], 81.8 nM; in [4], 34.7 nM. For the same molecule, the apical-to-basolateral permeability (Papp A→B) at 2 h in data set [34] worked out at 6.97 ×10⁻⁶ cm/s. In addition, in [35], the efflux ratio worked out at 1.2.
